Patent US7968526B2, “Antisense oligonucleotides directed to ribonucleotide reductase R2 and uses thereof in the treatment of cancer” (Lorus Therapeutics Inc., priority 2003, dated 2011)
“Also recorded” adds a separate entry of the source.

Key:
human whole blood = assay: Intravenous compatibility assay (haemolysis); assay type: cell-based; conditions: static or dynamic conditions
[1] = test system: human Burkitt's lymphoma (Raji) cells; assay: Survival of SCID mice bearing human Burkitt's lymphoma (Raji); assay type: in vivo, human cells in mice
Procedure: Mice with established human Burkitt's lymphoma tumours were treated every second day with either saline or SEQ ID NO:1 for 44 days as described above. The control group mice all died from disease progression by day 20. At day 44, the SEQ ID NO:1 mice continued treatment on a weekly basis until stopping the treatment at day 73.
As an additional test of efficacy SEQ ID NO:1 was administered to SCID mice bearing active Burkitt's lymphoma (FIG. 30). Viable human Burkitt's lymphoma (Raji) cells (5×10^6) collected from subconfluent logarithmically growing cultures were injected i.v. into each animal and disease was allowed to establish for 2 days. SEQ ID NO:1, SEQ ID NO:3 and SEQ ID NO:2, in normal saline were administered by tail vein injection every second day at a dose of 10 mg/kg. At day 40 the treatment schedule was reduced to 10 mg/kg every 3 days. Control animals received saline alone, without oligonucleotide. Survival is presented as a percentage of the starting number of mice over time.

[2] = test system: glioblastoma-astrocytoma (U-87 MG); assay: Human glioblastoma-astrocytoma tumour growth in mice; assay type: in vivo, human cells in mice
Procedure: Unless noted otherwise in this Example human tumour cell lines were purchased from the American Type Culture Collections (ATCC) (Rockville, Md.). Human colon adenocarcinoma (HT-29), non-small cell lung carcinoma (NCI-H460), melanoma (A2058), breast adenocarcinoma (MDA-MB-231), pancreatic carcinoma (AsPC-1 and SU.86.86), glioblastoma-astrocytoma (U-87 MG), renal carcinoma (A498 and Caki-1), ovarian carcinoma (SK-OV-3), cervical carcinoma (HeLa S3), prostate carcinoma (PC-3), bladder carcinoma (T24), Burkitt's lymphoma (Raji) and hepatocellular carcinoma (Hep G2) were maintained, according to ATCC recommendation, in α-MEM, RPMI1640, or McCoy's 5a medium (Invitrogen Canada Inc. Burlington, Ontario) supplemented with 10-20% fetal calf serum (FCS) at 37° C. in a humidified atmosphere containing 5% CO2. Normal human cell lines, WI-38 (human lung fibroblast) and HUVEC (human umbilical vein endothelial cells) and murine R3 (fibrosarcoma) and L (Ltk^− fibroblast) cells were maintained as mentioned above. […]
FIG. 29 summarizes the results of a statistical analysis of data compiled from a number of experiments in which the effect of SEQ ID NO:1 on tumour growth was assessed in human tumour cell xenografts in mice. […]

[3] = test system: C8161 human metastatic melanoma cells; assay: Experimental metastasis assay, C8161 cells, treatment post tumour cell injection; assay type: in vivo, human cells in mice; conditions: C8161 cells i.v. into SCID mice; treatment initiated after 2 days; lungs 5-7 weeks later
Procedure: C8161 human melanoma cells were seeded into 100 mm tissue culture dishes at a density of 2×10^6 and incubated overnight at 37° C. in α-MEM medium supplemented with 10% FBS. The cells were trypsinized, collected by centrifugation and aliquots were removed from the suspension to determine the cell viability using trypan blue exclusion test. […] Treatment was initiated after 2 days. Estimates of the number of lung nodules were made 5-7 weeks later, after excised lungs from individual mice were stained with picric acid dye solution (75% picric acid, 20% formaldehyde, 5% glacial acetic acid).
Murine R3 fibrosarcoma and human C8161 melanoma cells injected into the tail vein of mice form observable lung nodules 2 weeks post-injection. […] To more accurately reflect the clinical situation, mice were treated with SEQ ID NO:1 post tumour cell injection. C8161 human metastatic melanoma cells were seeded into 100 mm tissue culture dishes at a density of 2×10^6 and incubated overnight at 37° C. in α-MEM medium supplemented with 10% FBS. The cells were trypsinized, collected by centrifugation and aliquots were removed from the suspension to determine the cell viability using trypan blue exclusion test. Approximately 1×10^5 cells suspended in 0.1 ml of PBS were injected into the tail veins of 6-8 week old female SCID mice. Treatment was initiated after 2 days. Estimates of the number of lung nodules were made 5-7 weeks later, after excised lungs from individual mice were stained with picric acid dye solution (75% picric acid, 20% formaldehyde, 5% glacial acetic acid). The results are shown in FIG. 31, bars represent the mean number of nodules per mouse with standard error.

With “5′-GGCTAAATCGCTCCACCAAG-3′ (all phosphorothioate, sugars by position and methylation of C not given here) [SEQ ID NO: 1, fully phosphorothioated antisense oligonucleotide that hybridizes to the coding region of R2 mRNA]” the “Haemolytic activity (cell lysis and haemoglobin release)” value (human whole blood) was “did not cause haemolysis under static or dynamic conditions”, the Survival of mice ([1]; SCID mice (Example 7, FIG. 30), 10 mg/kg i.v. every second day, from day 40 every 3 days, 10 mg/kg) was “survived to the end of the study; also recorded: dramatic increase in survival time of mice well beyond the treatment period” and the Survival of mice ([1]; SCID mice, 10 mg/kg i.v. every second day, stopped at day 42, sacrificed day 73, untreated all died within 23 days) was “survived beyond day 73 except one mouse, which died at day 69”. For the same substance, the Survival of mice ([1]; second independent study, every second day for 44 days then weekly until day 73, controls all died by day 20) was “All mice survived to the end of the experimental period (140 days)”, the “Inhibition of tumour weight” value [2] was roughly 65% and the “Lung nodule formation / anti-metastatic activity (FIG. 31)” value [3] was “only one of the 9 mice had lung nodules”.
